Measurements as given in US20250288704A1, “CXCR4-LIGANDS FOR DIAGNOSTIC AND THERAPEUTIC USE AND PRECURSORS THEREOF” (priority 2021, published 2025).
Where two headings read alike, the source gives them in different places. Positions of bridges follow the written chain, without caps; N, C: chain ends. Non-standard residues stand in square brackets, D forms with d. Residues, ends and D or L forms follow the SMILES beside them. Groups on a side chain read outwards from the residue. Chains are numbered I, II in the order given. *: point of attachment. X9 = NCCNCC(CNCCN)C(=O)NC[C@@H](NC(=O)CC[C@@H](NC(=O)N[C@H](CCC(=O)O)C(=O)O)C(=O)O)C(=O)*; X2 = OC[C@H]1O[C@@H](O[C@H]2[C@H](O)[C@@H](O)[C@H](*)O[C@@H]2CO)[C@H](O)[C@@H](O)[C@H]1O; X8 = NCCNCC(CNCCN)C(=O)NC[C@@H](NC(=O)CCC(NC(=O)N[C@H](CCC(=O)O)C(=O)O)C(=O)O)C(=O)*; X5 = CC(C)(C)[Si](F)(c1ccc(C[N+](C)(C)CC(=O)*)cc1)C(C)(C)C; DOTA = O=C(O)CN1CCN(CC(=O)O)CCN(CC(=O)*)CCN(CC(=O)O)CC1; 2Nal = N[C@@H](Cc1ccc2ccccc2c1)C(=O)O; dNMeOrn = CN[C@H](CCCN)C(=O)O; d(hCys) = N[C@H](CCS)C(=O)O; Mercaptoacetyl = O=C(CS)*; X4 = OCC1OC(*)C(O)C(O)C1O; 4Abz = Nc1ccc(C(=O)O)cc1; dDap = NC[C@@H](N)C(=O)O; Ahx = NCCCCCC(=O)O

Legend:
[1] = molecular target: T1, CXCR4 (Homo sapiens, UniProt P61073); experiment: Determination of IC50: competition with 125I-Fc-131 on CXCR4-positive Jurkat cells; type: binding; parameters: CXCR4-positive Jurkat T lymphocyte cells were grown in Gibco's RPMI 1640 GlutaMAX medium; endogenous in cells; host or cells: Jurkat T lymphocyte cells (whole cells in suspension, 400.000 per tube);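 further: test compound at 10^−5 to 10^−11 M competed for 2 h at 8 °C with the radioligand on 400,000 cells per well, bound versus free activity measured by γ-counting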
T1 sequence (P61073 whole entry): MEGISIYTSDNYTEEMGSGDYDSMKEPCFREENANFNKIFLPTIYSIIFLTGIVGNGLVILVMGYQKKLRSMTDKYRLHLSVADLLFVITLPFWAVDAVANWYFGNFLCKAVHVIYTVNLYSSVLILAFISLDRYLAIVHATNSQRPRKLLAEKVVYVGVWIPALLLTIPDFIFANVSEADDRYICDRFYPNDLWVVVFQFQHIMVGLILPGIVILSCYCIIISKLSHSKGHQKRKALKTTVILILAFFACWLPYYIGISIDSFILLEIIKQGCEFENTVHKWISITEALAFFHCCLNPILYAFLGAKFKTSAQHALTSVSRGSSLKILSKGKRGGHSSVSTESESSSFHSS

[2] = tested on: CXCR4-expressing Chem_1 cells; experiment: Determination of internalization, dual tracer with 125I-Fc-131; type: cell-based; conditions: for Cell-bound [%] / Internalized [%]: of total cellular activity
Outline: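 Chem_1 cells grown in DMEM-F12 with 10% FBS at 37 °C; wells (n=3 per time point) received medium or AMD3100 (1 mM stock) to block receptors. Unbound, surface-bound and NaOH-lysed internalized fractions were γ-counted; data corrected for non-specific internalization and referred to standard ligand specific internalization.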

[3] = tested on: Jurkat tumor-bearing CB-17 SCID mice; experiment: Biodistribution in Jurkat tumor-bearing CB-17 SCID mice; type: in vivo; conditions: 1 h p.i., 1 mouse
Outline: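 CB17-SCID mice bore subcutaneous Jurkat xenografts (2-3×10^7 cells in Matrigel, shoulder), used at 5-8 mm tumor diameter. About 0.5-20 MBq (0.02-0.20 nmol) of 125I-, 177Lu-, 99mTc-, 18F- or 68Ga-labeled ligand given by tail vein; organs weighed and γ-counted after set times.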

[4] = Octanol/PBS partition coefficient (logD7.4); type: physicochemical; conditions: n-octanol/PBS pH 7.4, radiolabeled compound
Protocol: The tubes were vortexed at maximum speed for 3 min to ensure equilibrium before centrifugation at 15.000×g for 5 min on a Biofuge 15 from Heraeus Holding GmbH (Osterode, Germany). An aliquot of 100 μL of each fraction was measured in the γ-counter and the log D7.4 calculated as follows: […]

[5] = Biodistribution in Daudi xenograft bearing CB-17 SCID mice; type: in vivo; conditions: mouse, iv, total radioactivity, 1 h p.i., CB-17 SCID female mice
[6] = molecular target: T1, CXCR4; experiment: Determination of inverse IC50 (invIC50): radiolabeled peptide displaced by Fc-131 on Jurkat cells
Protocol: For in vitro experiments, cells were counted in a hemocytometer using trypan blue as contrast agent. The cell suspension was centrifuged, and the pellet resuspended in HBSS (+1 wt % BSA) to a concentration of 2 mio cells/mL. 8×3 polystyrene tubes were loaded with 25 μL of the standard ligand ^125I-Fc-131 (see 4.1, 1.00 nM in HBSS) and 25 μL of the ligand to investigate in the respective concentration (10^−4-10^−10 M, n=3 for each concentration). 200 μL of cell suspension (400.000 cells per well) were added to obtain a final peptide concentration range of 10^−5-10^−11 M. The tubes were cooled for 2 h at 8° C. to prevent internalization. The experiment was stopped by removal of the supernatant. 200 μL HBSS were added onto the cells, the suspension centrifuged, and the supernatant pooled with the respective first fractions. This step was repeated once more before the tubes containing the supernatants and the ones containing the cell pellets were subjected to activity measurement in the γ-counter.
For the determination of inverse IC50 (invIC50) values the protocol for the determination of regular IC50 values was resumed with minor changes. The peptide under investigation was radioactively labeled and a stock solution was prepared in HBSS (2.00 nM). A concentration gradient of the standard ligand Fc-131 was prepared in HBSS (10^−4-10^−10 M). A cell tube was then containing 25 μL of the radioactive peptide solution, 25 μL of the respective Fc-131 solution and 200 μL cell suspension (400.000 cells). The experiment was conducted as described above.

[7] = 2,000 pmol cold substance co-injected
[8] = co-injection of 1,000 μmol (so in the source) cold substance vs 36 pmol

Molecule	Internalized in relation to 125I-Fc-131 [%] ([2]; 30 min)	Cell-bound [%] ([2]; 30 min)	Internalized [%] ([2]; 30 min)	Internalization [% Fc-131] ([2]; 90 min)	Internalized in relation to 125I-Fc-131 [%] ([2]; 90 min)	Cell-bound [%] ([2]; 90 min)	Internalized [%] ([2]; 90 min)	logD7.4 [4]	IC50 [6] [nM]	also measured
C[C@@H](NC(=O)[C@@H](CCCNC(=N)N)NC(=O)[C@@H](CN)NC(=O)CCCCCNC(=O)[C@@H](CNC(=O)CN1CCN(CC(=O)O)CCN(CC(=O)O)CCN(CC(=O)O)CC1)NC(=O)[C@@H](CCS[C@@H]1O[C@H](CO)[C@@H](O[C@@H]2O[C@H](CO)[C@H](O)[C@H](O)[C@H]2O)[C@H](O)[C@H]1O)NC(=O)C[N+](C)(C)Cc1ccc([Si](F)(C(C)(C)C)C(C)(C)C)cc1)C(=O)Nc1ccc(C(=O)NCCC[C@@H]2C(=O)N[C@@H](CCCNC(=N)N)C(=O)N[C@@H](Cc3ccc4ccccc4c3)C(=O)NCC(=O)N[C@H](Cc3ccc(O)cc3)C(=O)N2C)cc1 [CXCR4-SiFA-7 [Ga]] (I: X5-[d(hCys)](X2)[dDap](DOTA)[Ahx][dDap][dR][dA][4Abz] / II: cyclo([dY][dNMeOrn]R[2Nal]G); amide I:C-II:2)	837 ± 51.4	0.11 ± 0.29	38.9 ± 1.09	1029 % Fc-131	1029 ± 66.7	0 ± 0.41	50.0 ± 1.12	−1.95 ± 0.05 (8)	–	IC50 ([1]; unlabeled or cold (natGa/natLu) compound vs 125I-Fc-131, Jurkat cells): 6.23 ± 1.57 nM; uptake in liver compared to biodistribution with 36 pmol [3, 7]: 70%; uptake in spleen compared to biodistribution with 36 pmol [3, 7]: 61%; uptake in tumor compared to biodistribution with 36 pmol [3, 7]: 40%; Blood activity level raised by [3, 8]: 310%; tumor uptake compared to un-supplemented injection [3, 8]: 180%; uptake in liver compared to un-supplemented injection [3, 8]: 121%; uptake in muscle compared to un-supplemented injection [3, 8]: 226%; uptake in pancreas compared to un-supplemented injection [3, 8]: 196%; uptake in spleen compared to un-supplemented injection [3, 8]: 114%
C[C@@H](NC(=O)[C@@H](CCCNC(=N)N)NC(=O)[C@@H](CO)NC(=O)[C@@H](CO)NC(=O)[C@@H](CO)NC(=O)CS)C(=O)Nc1ccc(C(=O)NCCC[C@@H]2C(=O)N[C@@H](CCCNC(=N)N)C(=O)N[C@@H](Cc3ccc4ccccc4c3)C(=O)NCC(=O)N[C@H](Cc3ccc(O)cc3)C(=O)N2C)cc1 [Tc-CXCR4-1] (I: Mercaptoacetyl-[dS][dS][dS][dR][dA][4Abz] / II: cyclo([dY][dNMeOrn]R[2Nal]G); amide I:C-II:2)	–	–	–	–	–	–	–	–	–	tissue uptake at 1 h ([5]; Blood, read-out: % iD/g Blood): 0.83 %ID/g; tissue uptake at 1 h ([5]; Heart, read-out: % iD/g Heart): 0.54 %ID/g; tissue uptake at 1 h ([5]; Intestine, read-out: % iD/g Intestine): 1.12 %ID/g; tissue uptake at 1 h ([5]; Kidney, read-out: % iD/g Kidney): 4 %ID/g; tissue uptake at 1 h ([5]; Liver, read-out: % iD/g Liver): 3.54 %ID/g; tissue uptake at 1 h ([5]; Lung, read-out: % iD/g Lung): 1.79 %ID/g; tissue uptake at 1 h ([5]; Muscle, read-out: % iD/g Muscle): 0.16 %ID/g; tissue uptake at 1 h ([5]; Pancreas, read-out: % iD/g Pancreas): 0.22 %ID/g; tissue uptake at 1 h ([5]; Spleen, read-out: % iD/g Spleen): 1.09 %ID/g; tissue uptake at 1 h ([5]; Stomach, read-out: % iD/g Stomach): 0.86 %ID/g; tissue uptake at 1 h ([5]; Tumor, read-out: % iD/g Tumor): 1.41 %ID/g; IC50 [1]: 20.6 ± 7.52 nM
C[C@@H](NC(=O)[C@@H](CCCNC(=N)N)NC(=O)[C@@H](CN)NC(=O)[C@@H](CO)NC(=O)[C@@H](CCSC1OC(CO)C(O)C(O)C1O)NC(=O)[C@@H](CCSC1OC(CO)C(O)C(O)C1O)NC(=O)CS)C(=O)Nc1ccc(C(=O)NCCC[C@@H]2C(=O)N[C@@H](CCCNC(=N)N)C(=O)N[C@@H](Cc3ccc4ccccc4c3)C(=O)NCC(=O)N[C@H](Cc3ccc(O)cc3)C(=O)N2C)cc1 (stereo partly drawn) [Tc-CXCR4-10] (I: Mercaptoacetyl-[d(hCys)](X4)[d(hCys)](X4)[dS][dDap][dR][dA][4Abz] / II: cyclo([2Nal]G[dY][dNMeOrn]R); amide I:C-II:4)	226 ± 10.2	6.75 ± 0.76	18.8± 0.66	267 (90 min) % Fc-131	267 ± 8.94	6.06 ± 0.34	31.7 ± 0.52	−2.32 ± 0.02 (7)	5.13 ± 1.81	–
C[C@@H](NC(=O)[C@@H](CCCNC(=N)N)NC(=O)[C@@H](CN)NC(=O)[C@@H](CNC(=O)C(CNCCN)CNCCN)NC(=O)CCC(NC(=O)N[C@H](CCC(=O)O)C(=O)O)C(=O)O)C(=O)Nc1ccc(C(=O)NCCC[C@@H]2C(=O)N[C@@H](CCCNC(=N)N)C(=O)N[C@@H](Cc3ccc4ccccc4c3)C(=O)NCC(=O)N[C@H](Cc3ccc(O)cc3)C(=O)N2C)cc1 (stereo partly drawn) [Tc-CXCR4-15] (cyclo([2Nal]G[dY][dNMeOrn]([4Abz-dA-dR-dDap-X8])R))	214 ± 11.7	4.35 ± 0.16	12.6 ± 0.34	232 (90 min) % Fc-131	232 ± 15.3	3.42 ± 0.27	17.9 ± 1.06	−3.60 ± 0.02 (8)	3.69 ± 1.32	–
C[C@@H](NC(=O)[C@@H](CCCNC(=N)N)NC(=O)[C@@H](CN)NC(=O)CCCCCNC(=O)[C@@H](CNC(=O)C(CNCCN)CNCCN)NC(=O)CC[C@@H](NC(=O)N[C@H](CCC(=O)O)C(=O)O)C(=O)O)C(=O)Nc1ccc(C(=O)NCCC[C@@H]2C(=O)N[C@@H](CCCNC(=N)N)C(=O)N[C@@H](Cc3ccc4ccccc4c3)C(=O)NCC(=O)N[C@H](Cc3ccc(O)cc3)C(=O)N2C)cc1 [Tc-CXCR4-16] (cyclo([2Nal]G[dY][dNMeOrn]([4Abz-dA-dR-dDap-Ahx-X9])R))	230 ± 10.7	3.36 ± 0.45	15.0 ± 0.31	284 (90 min) % Fc-131	284 ± 10.4	3.53 ± 0.21	19.8 ± 0.15	−2.70 ± 0.04 (8)	6.08 ± 1.03	–
CPCR4-HYNIC [In Literature: 99mTc-CXCR4-L; hydrazino-nicotinic acid attached directly at the D-Orn2 side chain of CPCR4, reference compound]	–	–	–	29 (90 min) % Fc-131	–	–	–	−1.84 ± 0.01 (8)	–	invIC50 [nM] ([6]; radiolabeled compound displaced by Fc-131, Jurkat cells): No
